From PMC12261233, “Photoactivatable Cyclometalated Ir(III) Compound Penetrates the Blood-Brain Barrier in 3D Spheroidal and Advanced 3D Organoid Models of Inherently Resistant and Aggressive Brain Tumors” (ACS Pharmacology & Translational Science, 2025)

How the values were obtained:
[1] = tested on: U87MG-RFP spheroids implanted into cerebral organoids; test: Glioblastoma intergrowth/spreading area in cerebral organoid-U87MG-RFP spheroid fusion system; format: cell-based, human; details: for glioblastoma spreading area, Δ 0h-120h, not irradiated: TMZ 100 μM or Ir4 2 μM for 3 h, no blue light
Experimental: In this study, U87MG-RFP glioblastoma spheroids were preformed over 72 h, implanted into cerebral organoid tissue, and coembedded in Matrigel. […] Samples designated for irradiation were exposed to blue laser light (405 nm, 60 s, 1 mW) and subsequently cultured in drug-free medium for 120 h. Z-stacking confocal imaging and ImageJ analysis quantified the area of glioblastoma spreading (Figure , panels III and IV).
An implant fusion model was established to monitor the distribution of Ir4 within the tumor, represented by the implanted tumorspheres generated from U87MG, and healthy tissue, represented by the hiPSC-derived cerebral organoid. Before the implantation procedure, spheroids derived from U87MG glioblastoma were cultured for 72 h under 3D forming conditions using ULA plates (96-well U-shaped plate, Corning) in DMEM-F12 supplemented with 2% B27, epidermal growth factor (EGF) at 20 ng mL^–1, fibroblast growth factor 2 (FGF2) at 10 ng mL^–1, and BSA (0.15%). Cerebral organoids were generated through a four-step directed differentiation process from human induced pluripotent stem cells (hiPSCs, Gibco). The hiPSCs were cultured on Geltrex matrix (hESC-Qualified, Reduced Growth Factor Basement Membrane Matrix; Gibco) in StemFlex basal medium (DMEM/F12, Ham, 1:1) fully supplemented with StemFlex supplement (Gibco). The preformation of cerebral organoids, involving the formation of embryoid bodies (EBs), was maintained in U-shape ultralow attachment 96-well plates (ULA, Corning) with 9000 hiPSCs per well in fully supplemented Stemdiff Cerebral organoid medium and 10 μM of the rock inhibitor Y27632. The EBs were cultured for 4 days to establish round-shaped EBs with a diameter of approximately 400 μm. Subsequently, 2 EBs per well were transferred to 24-well ULA plates, and differentiation into neural ectoderm was induced for an additional 2 days using the Stemdiff Cerebral Organoid Kit (StemCell Technologies, CA). Following this, early organoids were embedded in the Matrigel matrix (suitable for organoid culture, Corning) and directed toward further differentiation into neuroectoderm. After the initial differentiation phase, early organoids were monitored for the development of optically clear neuroectoderm (characterized by an optically bright, translucent surface) and the formation of large buds of translucent ectoderm that were not radially organized. Postembedding, the organoids were cultured on 6-well ULA plates under continuous orbital shaker agitation (50 rpm). […] The samples were then transferred to confocal Petri dishes containing drug-free cerebral maturation medium and analyzed using a confocal microscope (Leica CM SP5, Leica, Germany). […]

U87MG spheroids = test: Detection of ROS (CellRox) and PPI in spheroids by confocal microscopy; format: cell-based, human
Experimental: We evaluated ROS induction in glioblastoma U87MG spheroids treated with Ir4 at its IC50 concentration for 3 h, followed by blue laser light irradiation (405 nm, 60 s, 1 mW). ROS levels were quantified using the CellRox probe, with PPI employed to assess immediate cell death. Z-stack imaging was performed before irradiation and at 1, 15, and 30 min postirradiation (Figure , panel I). Mean fluorescence intensity in the z-stack projections quantified ROS generation (Figure , panel II).
The spheroids were exposed to Ir4 (IC50, U87MG 3D, 72 h) for 3 h or maintained under drug-free conditions (control). Subsequently, the samples were stained with CellRox reagent (5 μM) and PPI (8 μg mL^–1) before being irradiated for 60 s with blue laser light (405 nm, 1 mW). Imaging of the samples was conducted before or immediately after the irradiation (1 min postirradiation) and at defined time intervals (15 and 30 min). The fluorescence scanning was performed sequentially in z-stack mode (10 z-stacks). Postirradiation imaging was conducted for a total of 90 min, with only the data collected up to 30 min being presented and quantified. The experiments were independently replicated in triplicate.

hCMEC/D3 cells = tested on: hCMEC/D3 cells; parameters: method as in number not printed (footnote c: Data taken from the ref); details: comparison value; ref number not printed (footnote c: Data taken from the ref); cited from earlier work

Row | Structure (SMILES) | glioblastoma spreading area, Δ 0h-120h, irradiated ([1]; Ir4 2 μM 3 h, 405 nm 60 s 1 mW, 120 h drug-free) [fold] | glioblastoma spreading area, Δ 0h-120h, not irradiated ([1]; 120 h drug-free) [fold] | spreading area relative to TMZ ([1]; nonirradiated, Ir4 concentration 50 times lower than TMZ) | PPI fluorescence intensity postirradiation (U87MG spheroids; 15 and 30 min postirradiation) | ROS level compared to preirradiation level, 1 min (U87MG spheroids; IC50 3 h, 405 nm 60 s 1 mW, 1 min postirradiation) [fold] | ROS level compared to preirradiation level, 15 min (U87MG spheroids; IC50 3 h, 405 nm 60 s 1 mW, 15 min postirradiation) [fold] | ROS level compared to preirradiation level, 30 min (U87MG spheroids; IC50 3 h, 405 nm 60 s 1 mW, 30 min postirradiation) [fold] | ROS level versus untreated controls before laser irradiation (U87MG spheroids; IC50 (U87MG 3D, 72 h) for 3 h, CellRox, dark) [times] | P app (hCMEC/D3 cells)
1 | CCCCn1c2[n+](c3cc(C(=O)OC)ccc31)[Ir-3]13([Cl])([c]4ccccc4-2)[n+]2ccccc2-c2cc(-c4ccc(C)cc4)cc([n+]21)-c1cccc[n+]13.F[P-](F)(F)(F)(F)F [Ir4] | 0.6 | 2.1 | four times smaller | slight but significant increase | 1.8 | 2.3 | 2.5 | 1.8 | 
2 | Cn1nnc2c(C(N)=O)ncn2c1=O [Temozolomide, reference compound] |  | 8.7 |  |  |  |  |  |  | 0.36 × 10^–4 cm·s^–1
